Measured values published in patent US10681909B2, “Herbicidal triazoles” (FMC Corporation, priority 2014, dated 2020).

Legend:
Details in all cases: scale 0 to 100
[1] = system: lambsquarters; experiment: Test E preemergence; assay type: in vivo, Chenopodium album
Outline: (§1)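 Compounds, formulated with surfactant in non-phytotoxic solvent, are applied preemergence on silt loam or postemergence on 2–18 cm seedlings in peat-based medium. Response is judged visually against controls after 14–21 d, from 0 (none) to 100 (complete).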

[2] = system: poinsettia, wild; experiment: Test E preemergence; assay type: in vivo, Euphorbia heterophylla
Description: (§2) Seeds of plant species selected from corn (Zea mays), soybean (Glycine max), lambsquarters (Chenopodium album), poinsettia, wild (wild poinsettia, Euphorbia heterophylla), pigweed, palmer (palmer pigweed, Amaranthus palmeri), waterhemp (common waterhemp, Amaranthus rudis), surinam grass (Brachiaria decumbens), crabgrass, large (large crabgrass, Digitaria sanguinalis), crabgrass, Brazilian (Brazilian crabgrass, Digitaria horizontalis), panicum, fall (fall panicum, Panicum dichotomiflorum), foxtail, giant (giant foxtail, Setaria faberii), foxtail, green (green foxtail, Setaria viridis), goosegrass (Eleusine indica), johnsongrass (Sorghum halepense), ragweed (common ragweed, Ambrosia elatior), barnyardgrass (Echinochloa crus-galli), sandbur (southern sandbur, Cenchrus echinatus), arrowleaf sida (Sida rhombifolia), ryegrass, Italian (Italian ryegrass, Lolium multiflorum), dayflower, VA (Virginia dayflower, Commelina virginica), field bindweed (Convolvulus arvensis), cocklebur (common cocklebur, Xanthium strumarium), morningglory (Ipomoea coccinea), nightshade (eastern black nightshade, Solanum ptycanthum), kochia (Kochia scoparia), nutsedge, yellow (yellow nutsedge, Cyperus esculentus), smartweed (ladysthumb smartweed, Polygonum persicaria), velvetleaf (Abutilon theophrasti), horseweed (Conyza canadensis), and beggarticks (hairy beggarticks, Bidens pilosa), were planted into a silt loam soil and treated preemergence with test chemicals formulated in a non-phytotoxic solvent mixture which included a surfactant.
(§3) At the same time, plants from these crop and weed species and also waterhemp_RES1, (ALS & Triazine resistant common waterhemp, Amaranthus rudis), and waterhemp_RES2, (ALS & HPPD resistant common waterhemp, Amaranthus rudis) were planted in pots containing Sunshine Redi-Earth® planting medium comprising spaghnum peat moss, vermiculite, starter nutrients and dolomitic limestone were treated with postemergence applications of test chemicals formulated in the same manner. Plants ranged in height from 2 to 18 cm for postemergence treatments (1- to 4-leaf stage). Treated plants and controls were maintained in a greenhouse for 14 to 21 d, after which time all species were compared to controls and visually evaluated. Plant response ratings, summarized in Table E, are based on a scale of 0 to 100 where 0 is no effect and 100 is complete control. A dash (-) response means no test result.

[3] = system: pigweed, palmer; experiment: Test E preemergence; assay type: in vivo, Amaranthus palmeri
Outline: as §1

[4] = system: panicum, fall; experiment: Test E preemergence; assay type: in vivo, Panicum dichotomiflorum
Outline: as §1

[5] = system: foxtail, giant; experiment: Test E preemergence; assay type: in vivo, Setaria faberii
Outline: as §1

[6] = system: foxtail, green; experiment: Test E preemergence; assay type: in vivo, Setaria viridis
Outline: as §1

[7] = system: johnsongrass; experiment: Test E preemergence; assay type: in vivo, Sorghum halepense
Outline: as §1

[8] = system: sandbur; experiment: Test E preemergence; assay type: in vivo, Cenchrus echinatus
Outline: as §1

[9] = system: arrowleaf sida; experiment: Test E preemergence; assay type: in vivo, Sida rhombifolia
Outline: as §1

[10] = system: ryegrass, Italian; experiment: Test E preemergence; assay type: in vivo, Lolium multiflorum
Outline: as §1

[11] = system: field bindweed; experiment: Test E preemergence; assay type: in vivo, Convolvulus arvensis
Outline: as §1

[12] = system: nightshade; experiment: Test E preemergence; assay type: in vivo, Solanum ptycanthum
Outline: as §1

[13] = system: nutsedge, yellow; experiment: Test E preemergence; assay type: in vivo, Cyperus esculentus
Outline: as §1

[14] = system: velvetleaf; experiment: Test E preemergence; assay type: in vivo, Abutilon theophrasti
Outline: as §1

[15] = system: soybean; experiment: Test E postemergence; assay type: in vivo, Glycine max
Description: as §2, §3

[16] = system: waterhemp_RES1 (ALS & Triazine resistant common waterhemp); experiment: Test E postemergence; assay type: in vivo, Amaranthus rudis
Description: as §2, §3

[17] = system: waterhemp_RES2 (ALS & HPPD resistant common waterhemp); experiment: Test E postemergence; assay type: in vivo, Amaranthus rudis
Description: as §2, §3

[18] = system: waterhemp; experiment: Test E postemergence; assay type: in vivo, Amaranthus rudis
Description: as §2, §3

[19] = system: arrowleaf sida; experiment: Test E postemergence; assay type: in vivo, Sida rhombifolia
Description: as §2, §3

[20] = system: dayflower, VA; experiment: Test E postemergence; assay type: in vivo, Commelina virginica
Description: as §2, §3

Measured: Plant response rating

CCc1nc(-c2ccc(C(F)(F)F)cc2)nn1Cc1ccnc(C(F)(F)F)c1 [Compound 1, 4-[[5-ethyl-3-[4-(trifluoromethyl)phenyl]-1H-1,2,4-triazol-1-yl]methyl]-2-(trifluoromethyl)pyridine]
60: [4]; 31 g ai/ha | [7]; 250 g ai/ha
25: [20]; 31 g ai/ha
85: [17]; 31 g ai/ha | [17]; 62 g ai/ha | [19]; 250 g ai/ha
40: [2]; 62 g ai/ha | [2]; 125 g ai/ha | [7]; 62 g ai/ha | [8]; 125 g ai/ha | [10]; 250 g ai/ha | [11]; 125 g ai/ha | [15]; 16 g ai/ha | [15]; 31 g ai/ha | [19]; 31 g ai/ha | [20]; 62 g ai/ha
70: [19]; 125 g ai/ha
90: [1]; 62 g ai/ha | [12]; 125 g ai/ha | [16]; 16 g ai/ha | [16]; 31 g ai/ha | [16]; 62 g ai/ha | [17]; 125 g ai/ha | [18]; 62 g ai/ha
100: [3]; 125 g ai/ha | [3]; 250 g ai/ha | [4]; 125 g ai/ha | [4]; 250 g ai/ha | [6]; 250 g ai/ha
95: [1]; 125 g ai/ha | [1]; 250 g ai/ha | [12]; 250 g ai/ha | [16]; 125 g ai/ha | [16]; 250 g ai/ha | [17]; 250 g ai/ha | [18]; 125 g ai/ha | [18]; 250 g ai/ha
50: [2]; 250 g ai/ha | [6]; 31 g ai/ha | [6]; 62 g ai/ha | [7]; 125 g ai/ha | [8]; 250 g ai/ha | [9]; 250 g ai/ha | [11]; 250 g ai/ha | [12]; 16 g ai/ha | [14]; 250 g ai/ha | [15]; 62 g ai/ha | [15]; 125 g ai/ha | [19]; 62 g ai/ha | [20]; 125 g ai/ha | [20]; 250 g ai/ha
65: [1]; 31 g ai/ha | [15]; 250 g ai/ha | [18]; 16 g ai/ha
80: [3]; 16 g ai/ha | [4]; 62 g ai/ha | [5]; 62 g ai/ha | [5]; 125 g ai/ha | [6]; 125 g ai/ha | [17]; 16 g ai/ha | [18]; 31 g ai/ha
75: [12]; 62 g ai/ha
30: [2]; 31 g ai/ha | [5]; 31 g ai/ha | [11]; 62 g ai/ha | [14]; 125 g ai/ha | [19]; 16 g ai/ha
15: [4]; 16 g ai/ha | [7]; 31 g ai/ha
0: [8]; 16 g ai/ha | [9]; 16 g ai/ha | [10]; 16 g ai/ha | [10]; 31 g ai/ha | [11]; 16 g ai/ha | [13]; 16 g ai/ha | [13]; 31 g ai/ha | [13]; 62 g ai/ha | [13]; 125 g ai/ha | [14]; 16 g ai/ha
98: [3]; 62 g ai/ha | [5]; 250 g ai/ha
20: [5]; 16 g ai/ha | [6]; 16 g ai/ha | [8]; 62 g ai/ha | [9]; 62 g ai/ha | [9]; 125 g ai/ha | [10]; 62 g ai/ha | [10]; 125 g ai/ha | [20]; 16 g ai/ha
10: [1]; 16 g ai/ha | [2]; 16 g ai/ha | [7]; 16 g ai/ha | [8]; 31 g ai/ha | [9]; 31 g ai/ha | [11]; 31 g ai/ha | [13]; 250 g ai/ha | [14]; 31 g ai/ha | [14]; 62 g ai/ha
